Reference: ChEMBL document CHEMBL4765455, “Design, synthesis, and biological evaluations of novel 3-amino-4-ethynyl indazole derivatives as Bcr-Abl kinase inhibitors with potent cellular antileukemic activity” (Eur J Med Chem, 2020)

Tests used:
HL-60(TB) = test: Antiproliferative activity against human HL-60(TB) cells assessed as cell growth inhibition measured after 48 hrs by SRB assay; format: functional
[1] = molecular target: T1, Macrophage colony-stimulating factor 1 receptor (Homo sapiens, UniProt P07333); test: Inhibition of FMS (unknown origin) at 1 uM relative to control
T1 sequence (P07333 whole entry): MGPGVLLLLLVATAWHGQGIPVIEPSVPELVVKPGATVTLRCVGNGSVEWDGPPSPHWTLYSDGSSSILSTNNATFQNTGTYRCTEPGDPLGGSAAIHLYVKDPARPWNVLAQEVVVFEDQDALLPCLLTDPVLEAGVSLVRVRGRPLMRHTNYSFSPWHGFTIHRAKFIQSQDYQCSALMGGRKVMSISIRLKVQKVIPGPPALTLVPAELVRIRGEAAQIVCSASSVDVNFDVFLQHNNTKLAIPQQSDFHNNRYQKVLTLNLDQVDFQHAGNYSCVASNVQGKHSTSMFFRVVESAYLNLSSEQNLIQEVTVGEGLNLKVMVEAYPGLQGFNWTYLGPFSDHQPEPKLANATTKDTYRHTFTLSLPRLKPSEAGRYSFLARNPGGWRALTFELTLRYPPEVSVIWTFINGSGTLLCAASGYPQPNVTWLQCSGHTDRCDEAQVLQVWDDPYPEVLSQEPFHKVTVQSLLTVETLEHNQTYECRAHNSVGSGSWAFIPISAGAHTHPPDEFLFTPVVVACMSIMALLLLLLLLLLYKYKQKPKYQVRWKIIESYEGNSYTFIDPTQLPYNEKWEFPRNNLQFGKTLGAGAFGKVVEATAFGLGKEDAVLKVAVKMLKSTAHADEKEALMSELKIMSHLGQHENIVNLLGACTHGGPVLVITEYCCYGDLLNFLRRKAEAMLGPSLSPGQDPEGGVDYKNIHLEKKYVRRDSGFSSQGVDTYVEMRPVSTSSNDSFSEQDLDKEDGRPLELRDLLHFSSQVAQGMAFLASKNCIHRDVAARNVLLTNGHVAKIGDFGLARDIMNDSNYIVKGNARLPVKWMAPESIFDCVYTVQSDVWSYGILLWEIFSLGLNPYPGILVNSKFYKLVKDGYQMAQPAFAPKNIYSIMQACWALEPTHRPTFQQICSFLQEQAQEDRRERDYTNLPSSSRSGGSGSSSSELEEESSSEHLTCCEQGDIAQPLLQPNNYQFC

K562 [2] = test: Antiproliferative activity against human K562 cells assessed as cell growth inhibition incubated for 72 hrs by MTT assay; format: functional
[3] = Oral bioavailability in ICR mouse at 10 mg/kg measured up to 8 hrs by LC-MS/MS analysis; format: ADME, organism-based; conditions: in vivo
[4] = molecular target: Serine/threonine-protein kinase PLK1 (Homo sapiens) (UniProt P53350); test: Inhibition of PLK1 (unknown origin) at 1 uM relative to control
[5] = molecular target: Cyclin-dependent kinase 4/cyclin D1 (Homo sapiens) (UniProt P11802+P24385); test: Inhibition of CDK4/cyclinD1 (unknown origin) at 1 uM relative to control; format: protein-complex assay
[6] = molecular target: High affinity nerve growth factor receptor (Homo sapiens) (UniProt P04629); test: Inhibition of TRKA (unknown origin) at 1 uM relative to control
Sequence of High affinity nerve growth factor receptor (Homo sapiens) (P04629 33-796 limits assumed): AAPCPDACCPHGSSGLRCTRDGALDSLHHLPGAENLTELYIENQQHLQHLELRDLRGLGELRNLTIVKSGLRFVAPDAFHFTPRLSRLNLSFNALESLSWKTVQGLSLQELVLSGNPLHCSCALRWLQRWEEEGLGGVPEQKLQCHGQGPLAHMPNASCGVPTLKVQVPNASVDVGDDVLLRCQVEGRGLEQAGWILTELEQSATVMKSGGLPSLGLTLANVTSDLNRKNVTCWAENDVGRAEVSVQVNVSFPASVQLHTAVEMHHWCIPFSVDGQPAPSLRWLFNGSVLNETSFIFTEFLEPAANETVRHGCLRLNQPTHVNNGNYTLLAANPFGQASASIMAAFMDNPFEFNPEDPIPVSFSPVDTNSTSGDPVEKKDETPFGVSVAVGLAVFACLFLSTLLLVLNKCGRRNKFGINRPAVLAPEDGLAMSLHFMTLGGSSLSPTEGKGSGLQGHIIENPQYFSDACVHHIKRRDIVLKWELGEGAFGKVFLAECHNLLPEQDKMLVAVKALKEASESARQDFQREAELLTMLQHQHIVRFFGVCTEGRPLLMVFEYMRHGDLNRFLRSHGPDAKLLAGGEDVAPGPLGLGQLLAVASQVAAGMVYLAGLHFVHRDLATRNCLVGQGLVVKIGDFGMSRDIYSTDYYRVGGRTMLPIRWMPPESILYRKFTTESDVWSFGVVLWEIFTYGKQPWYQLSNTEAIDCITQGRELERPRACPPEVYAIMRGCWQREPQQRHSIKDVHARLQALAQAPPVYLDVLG

CCRF-CEM = test: Antiproliferative activity against human CCRF-CEM cells assessed as cell growth inhibition measured after 48 hrs by SRB assay; format: functional
Homo sapiens [7] = organism: Homo sapiens; test: Potency index, ratio of test compound IC50 to E4031 IC50 for human […]
[8] = Volume of distribution at steady state in ICR mouse at 5 mg/kg, iv measured up to 8 hrs by LC-MS/MS analysis; format: ADME, organism-based; conditions: in vivo, read-out: Vdss
[9] = AUClast in ICR mouse at 10 mg/kg, po measured up to 8 hrs by LC-MS/MS analysis; format: ADME, organism-based; parameters: route oral, dose 10 mg/kg, time <=8; conditions: in vivo
[10] = molecular target: Serine/threonine-protein kinase pim-1 (Homo sapiens) (UniProt P11309); test: Inhibition of PIM1 (unknown origin) at 1 uM relative to control
Homo sapiens [11] = organism: Homo sapiens; test: Selectivity index, ratio of IC50 for FMS (unknown origin) to IC50 for Bcr-Abl (unknown origin)
[12] = Half life in ICR mouse at 5 mg/kg, iv measured up to 8 hrs by LC-MS/MS analysis; format: ADME, organism-based; conditions: in vivo
Homo sapiens [13] = organism: Homo sapiens; test: Selectivity index, ratio of IC50 for human ERG to EC50 for ABL1 (unknown origin) expressed in human HEK293 cells; format: cell-based
K562 [14] = test: Antiproliferative activity against human K562 cells assessed as cell growth inhibition measured after 48 hrs by SRB assay; format: functional
[15] = molecular target: T2, Serine/threonine-protein kinase B-raf (Homo sapiens, UniProt P15056); test: Inhibition of BRAF (unknown origin) at 1 uM relative to control
T2 sequence (P15056 whole entry): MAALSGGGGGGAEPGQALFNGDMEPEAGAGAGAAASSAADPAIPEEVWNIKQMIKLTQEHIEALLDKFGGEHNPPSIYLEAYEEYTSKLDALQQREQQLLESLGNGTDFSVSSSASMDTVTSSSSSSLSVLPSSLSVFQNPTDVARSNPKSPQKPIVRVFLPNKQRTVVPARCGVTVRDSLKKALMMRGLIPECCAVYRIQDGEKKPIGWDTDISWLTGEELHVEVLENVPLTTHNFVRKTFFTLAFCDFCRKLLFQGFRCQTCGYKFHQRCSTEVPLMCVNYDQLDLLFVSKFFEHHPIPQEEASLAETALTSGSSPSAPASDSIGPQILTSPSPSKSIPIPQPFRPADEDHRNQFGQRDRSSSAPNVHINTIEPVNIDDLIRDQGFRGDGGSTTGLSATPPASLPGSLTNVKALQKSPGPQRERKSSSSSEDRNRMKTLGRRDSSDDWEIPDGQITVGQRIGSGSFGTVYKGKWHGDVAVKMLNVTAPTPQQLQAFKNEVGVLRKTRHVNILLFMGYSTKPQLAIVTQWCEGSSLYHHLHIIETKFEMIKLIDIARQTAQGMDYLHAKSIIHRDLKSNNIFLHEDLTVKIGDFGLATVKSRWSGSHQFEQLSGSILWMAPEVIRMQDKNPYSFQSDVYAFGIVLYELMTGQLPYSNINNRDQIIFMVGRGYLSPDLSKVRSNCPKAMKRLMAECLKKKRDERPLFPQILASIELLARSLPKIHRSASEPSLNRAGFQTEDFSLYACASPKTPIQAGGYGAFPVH

[16] = AUClast in ICR mouse at 5 mg/kg, iv measured up to 8 hrs by LC-MS/MS analysis; format: ADME, organism-based; parameters: route intravenous, dose 5 mg/kg, time <=8; conditions: in vivo
[17] = molecular target: Tyrosine-protein kinase ABL1 (Homo sapiens, UniProt P00519); test: Inhibition of NanoLuc-fused ABL1 (unknown origin) expressed in human HEK293 cells incubated for 2 to 3 mins by NanoBRET assay; format: cell-based
[18] = Mean residence time in ICR mouse at 10 mg/kg, po measured up to 8 hrs by LC-MS/MS analysis; format: ADME, organism-based; conditions: in vivo
SR = test: Antiproliferative activity against human SR cells assessed as cell growth inhibition at 10 uM measured after 48 hrs by SRB assay relative to control; format: functional; conditions: read-out: GI
K562 [19] = test: Antiproliferative activity against human K562 cells assessed as cell growth inhibition at 10 uM measured after 48 hrs by SRB assay relative to control; format: functional; conditions: read-out: GI
[20] = molecular target: Receptor-type tyrosine-protein kinase FLT3 (Homo sapiens) (UniProt P36888); test: Inhibition of FLT3 (unknown origin) at 1 uM relative to control
RPMI-8226 = test: Antiproliferative activity against human RPMI-8226 cells assessed as cell growth inhibition at 10 uM measured after 48 hrs by SRB assay relative to control; format: functional; conditions: read-out: GI
[21] = molecular target: Focal adhesion kinase 1 (Homo sapiens) (UniProt Q05397); test: Inhibition of FAK/PTK2 (unknown origin) at 1 uM relative to control
Bcr/Abl fusion protein = Bcr/Abl fusion protein (Homo sapiens, UniProt P00519); test: Inhibition of wild type BCR-ABL (unknown origin) incubated for 40 mins in presence of [gamma33P]ATP by scintillation method; format: protein assay
[22] = molecular target: T2, Serine/threonine-protein kinase B-raf; test: Inhibition of BRAF (unknown origin) in presence of ATP
[23] = molecular target: Voltage-gated inwardly rectifying potassium channel KCNH2 (Homo sapiens, UniProt Q12809); test: Inhibition of human ERG incubated for 4 hrs by competitive fluorescence tracer binding based assay
[24] = molecular target: Bcr/Abl fusion protein (Homo sapiens) (UniProt P00519+P11274); test: Inhibition of Bcr-Abl in human K562 cells assessed as reduction in Bcr-Abl phosphorylation incubated for 1 hr by Western blotting analysis; format: cell-based; conditions: dose 0.003-0.3 µM
[25] = molecular target: Proto-oncogene tyrosine-protein kinase Src (Homo sapiens, UniProt P12931); test: Inhibition of c-Src (unknown origin) at 1 uM relative to control
[26] = molecular target: Aurora kinase A (Homo sapiens) (UniProt O14965); test: Inhibition of Aurora A (unknown origin) at 1 uM relative to control
MOLT-4 [27] = test: Antiproliferative activity against human MOLT-4 cells assessed as cell growth inhibition at 10 uM measured after 48 hrs by SRB assay relative to control; format: functional; conditions: read-out: GI
[28] = Selectivity index, ratio of GI50 for human HL60(TB) cells to GI50 for human K562 cells; format: functional
[29] = Tmax in ICR mouse at 10 mg/kg, po measured up to 8 hrs by LC-MS/MS analysis; format: ADME, organism-based; conditions: in vivo
MOLT-4 [30] = test: Antiproliferative activity against human MOLT-4 cells assessed as cell growth inhibition measured after 48 hrs by SRB assay; format: functional
[31] = Cmax in ICR mouse at 10 mg/kg, po measured up to 8 hrs by LC-MS/MS analysis; format: ADME, organism-based; parameters: route oral, dose 10 mg/kg, time <=8; conditions: in vivo
[32] = molecular target: T1, Macrophage colony-stimulating factor 1 receptor; test: Inhibition of FMS (unknown origin) in presence of ATP
[33] = molecular target: Tyrosine-protein kinase JAK2 (Homo sapiens) (UniProt O60674); test: Inhibition of JAK2 (unknown origin) at 1 uM relative to control
Sequence of Tyrosine-protein kinase JAK2 (Homo sapiens) (O60674 whole entry): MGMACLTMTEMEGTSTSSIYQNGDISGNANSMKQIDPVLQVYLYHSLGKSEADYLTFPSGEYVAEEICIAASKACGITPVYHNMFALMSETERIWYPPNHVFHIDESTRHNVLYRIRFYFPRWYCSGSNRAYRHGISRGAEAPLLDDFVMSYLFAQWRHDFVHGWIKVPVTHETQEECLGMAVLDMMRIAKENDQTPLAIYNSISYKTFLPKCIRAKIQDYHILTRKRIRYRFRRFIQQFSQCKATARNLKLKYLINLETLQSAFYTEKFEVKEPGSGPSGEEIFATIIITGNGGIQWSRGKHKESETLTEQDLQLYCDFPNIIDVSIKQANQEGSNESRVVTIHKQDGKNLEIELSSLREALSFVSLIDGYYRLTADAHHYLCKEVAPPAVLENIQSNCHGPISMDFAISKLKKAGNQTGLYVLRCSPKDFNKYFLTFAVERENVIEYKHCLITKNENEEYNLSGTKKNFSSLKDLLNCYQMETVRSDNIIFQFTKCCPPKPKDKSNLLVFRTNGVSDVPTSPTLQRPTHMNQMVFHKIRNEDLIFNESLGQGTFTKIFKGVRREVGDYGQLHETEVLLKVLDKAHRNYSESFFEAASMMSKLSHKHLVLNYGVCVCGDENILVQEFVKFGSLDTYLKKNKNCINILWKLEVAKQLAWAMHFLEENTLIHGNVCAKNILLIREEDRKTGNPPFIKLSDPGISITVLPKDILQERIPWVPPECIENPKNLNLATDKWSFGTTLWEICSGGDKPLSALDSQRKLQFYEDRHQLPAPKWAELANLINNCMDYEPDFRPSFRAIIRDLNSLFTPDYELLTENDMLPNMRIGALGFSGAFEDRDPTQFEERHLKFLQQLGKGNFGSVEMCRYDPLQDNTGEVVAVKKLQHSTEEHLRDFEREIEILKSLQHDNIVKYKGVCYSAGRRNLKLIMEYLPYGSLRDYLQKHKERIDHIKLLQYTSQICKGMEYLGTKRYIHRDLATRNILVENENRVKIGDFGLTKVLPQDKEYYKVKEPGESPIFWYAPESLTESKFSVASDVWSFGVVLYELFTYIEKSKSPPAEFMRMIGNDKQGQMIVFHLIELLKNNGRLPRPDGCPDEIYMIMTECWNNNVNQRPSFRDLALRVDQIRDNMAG

Homo sapiens [34] = organism: Homo sapiens; test: Selectivity index, ratio of IC50 for BRAF (unknown origin) to IC50 for Bcr-Abl (unknown origin)
[35] = molecular target: Proto-oncogene tyrosine-protein kinase ROS (Homo sapiens) (UniProt P08922); test: Inhibition of ROS/ROS1 (unknown origin) at 1 uM relative to control
[36] = molecular target: Serine/threonine-protein kinase Chk1 (Homo sapiens) (UniProt O14757); test: Inhibition of CHK1 (unknown origin) at 1 uM relative to control
[37] = molecular target: Epidermal growth factor receptor (Homo sapiens) (UniProt P00533); test: Inhibition of EGFR (unknown origin) at 1 uM relative to control
Sequence of Epidermal growth factor receptor (Homo sapiens) (P00533 whole entry): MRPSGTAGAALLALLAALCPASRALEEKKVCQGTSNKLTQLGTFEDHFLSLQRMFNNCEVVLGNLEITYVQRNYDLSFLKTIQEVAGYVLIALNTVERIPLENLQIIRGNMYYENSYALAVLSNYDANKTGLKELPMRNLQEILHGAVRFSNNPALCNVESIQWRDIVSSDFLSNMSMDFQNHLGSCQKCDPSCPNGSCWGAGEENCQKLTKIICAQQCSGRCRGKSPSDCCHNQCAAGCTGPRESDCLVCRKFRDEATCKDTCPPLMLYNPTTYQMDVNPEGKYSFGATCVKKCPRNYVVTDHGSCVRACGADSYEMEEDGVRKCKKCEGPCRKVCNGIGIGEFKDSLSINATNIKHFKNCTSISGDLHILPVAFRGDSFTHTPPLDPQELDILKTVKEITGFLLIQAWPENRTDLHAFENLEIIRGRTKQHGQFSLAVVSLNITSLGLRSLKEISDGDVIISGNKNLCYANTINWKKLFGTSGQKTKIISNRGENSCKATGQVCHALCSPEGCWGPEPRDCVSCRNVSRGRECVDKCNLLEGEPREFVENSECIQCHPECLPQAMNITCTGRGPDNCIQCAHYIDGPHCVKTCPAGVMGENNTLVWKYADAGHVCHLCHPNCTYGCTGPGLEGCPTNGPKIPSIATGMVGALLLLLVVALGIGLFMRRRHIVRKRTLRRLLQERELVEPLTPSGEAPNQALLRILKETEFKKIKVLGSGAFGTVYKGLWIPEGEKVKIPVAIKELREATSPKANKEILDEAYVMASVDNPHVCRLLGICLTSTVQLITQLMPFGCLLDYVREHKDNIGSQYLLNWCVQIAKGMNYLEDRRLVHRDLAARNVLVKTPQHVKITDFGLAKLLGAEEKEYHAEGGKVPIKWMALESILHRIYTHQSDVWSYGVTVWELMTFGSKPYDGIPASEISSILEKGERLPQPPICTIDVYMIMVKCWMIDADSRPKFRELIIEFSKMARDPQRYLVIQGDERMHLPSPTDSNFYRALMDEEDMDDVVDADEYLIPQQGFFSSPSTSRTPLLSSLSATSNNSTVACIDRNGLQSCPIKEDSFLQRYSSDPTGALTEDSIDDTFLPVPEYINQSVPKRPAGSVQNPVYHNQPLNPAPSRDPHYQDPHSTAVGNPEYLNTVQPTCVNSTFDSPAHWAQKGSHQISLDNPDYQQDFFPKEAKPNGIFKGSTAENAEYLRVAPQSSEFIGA

[38] = Mean residence time in ICR mouse at 5 mg/kg, iv measured up to 8 hrs by LC-MS/MS analysis; format: ADME, organism-based; conditions: in vivo

## Nc1n[nH]c2cccc(C#Cc3cccc(NC(=O)c4ccc(N5CCOCC5)c(C(F)(F)F)c4)c3)c12
HL-60(TB)
  GI50: 1400 nM
[1]
  inhibition: 87.8%
K562 [2]
  GI50: 20 nM
[3]
  bioavailability: 0.6%
[4]
  inhibition: < 30%
[5]
  inhibition: < 30%
[6]
  inhibition: < 30%
CCRF-CEM
  GI50: 1360 nM
Homo sapiens [7]
  Ratio IC50: 310
[8]
  Vd: 1.4 L/kg
[9]
  AUC(0-t) at 8 h: 175 ng·h/mL
[10]
  inhibition: < 30%
Homo sapiens [11]
  Ratio IC50: 3.5
[12]
  half-life: 3.5 h
Homo sapiens [13]
  Ratio IC50/EC50: 233
K562 [14]
  GI50: < 10 nM
[15]
  inhibition: 87.8%
[16]
  AUC(0-t) at 8 h: 14000 ng·h/mL
[17]
  EC50: 14.6 nM
[18]
  MRT: 1.3 h
SR
  inhibition of growth at 10 µM: 87.4%
K562 [19]
  inhibition of growth at 10 µM: 99%
[20]
  inhibition: 87.8%
RPMI-8226
  inhibition of growth at 10 µM: > 100%
[21]
  inhibition: < 30%
Bcr/Abl fusion protein
  IC50: 4.6 nM
[22]
  IC50: 122 nM
[23]
  IC50: 3400 nM
[24]
  Activity: Dose-dependent effect
[25]
  inhibition: 87.8%
[26]
  inhibition: 43.4%
MOLT-4 [27]
  inhibition of growth at 10 µM: 92.3%
[28]
  RatioGI50: 140
[29]
  Tmax: 0.6 h
MOLT-4 [30]
  GI50: 1310 nM
[31]
  Cmax: 113 ng/mL
[32]
  IC50: 16.2 nM
[33]
  inhibition: < 30%
Homo sapiens [34]
  Ratio IC50: 26.5
[35]
  inhibition: < 30%
[36]
  inhibition: < 30%
[37]
  inhibition: 43.4%
[38]
  MRT: 4.7 h
